These results are taken from patent publication US20070184098A1, “Esters of flavonoids with w-substituted c6-c22 fatty acids” (priority 2003, published 2007).

One data set concerns Human fibroblasts. Briefly: UVA cytophotoprotection, anti-oxidative effect (MDA released, cell proteins, GSH) on UVA-irradiated human fibroblasts. It counts as cell-based. Conditions: UVA 20 J/cm2; for Cell GSH/protein ratio: irradiated control = 78, not irradiated = 100; for MDA released: irradiated control = 100, not irradiated = 0; for Cell proteins: irradiated control = 107, not irradiated = 100. The procedure:
The cytoprotection against UVA irradiation has been evaluated by a test on human fibroblasts because UVA radiation penetrates through the epidermis until the dermis where it induces oxidative stress, mainly by activation of photosensitising biological components, which catalyse the formation of ROS like anion superoxide, hydrogen peroxide and singlet oxygen, and lipoperoxydation of the cell membrane. These oxidative stress effects are evaluated in vitro due to measuring of the level of released MDA (malondialdehyde) and of intracellular GSH (reduced glutathion) (Morliere P., Moisan A., Santus R., Huppe G., Mazière J. C., Dubertret L.: UV-A induced lipid peroxydation in cultured human fibroblasts Biochim. Biophys. Acta (1991) 1084, 3:261-269).
The lipoperoxides formed after UVA irradiation undergo a decay into malondialdehyde which can form cross-links between many biological molecules like proteins with inhibition of enzymes and nucleic bases with risk of mutagenesis. Glutathione (GSH) is a peptide produced by the cells to protect them from oxidative stress or certain pollutants like mercury or lead. An increase in the GSH level enhances the activity of glutathion-S-transferase, a detoxification enzyme. GSH is evaluated according to the method of Hissin (Hissin P. J., Hilf R. A fluorometric method for determination of oxydised and reduced Glutathione in tissues. Analytical Biochemistry (1977) vol 74, pp 214-226).
Human fibroblasts were inoculated with growth medium (DMEM+FCS) and incubated 3 days at 37° C., with 5% CO2. The growth medium was then exchanged with medium containing an ingredient to be tested and incubated 2 days at 37° C. with CO2=5%. After an exchange of medium with balanced salt solution, the cell culture was irradiated by UVA 20 J/cm^2. Cell proteins and GSH were measured, and MDA released in the supernatant was determined spectrophotometrically.

The subject of the next data set is Human keratinocytes. The data set is described as follows: UVB cytophotoprotection and anti-inflammatory effect (DNA, LDH and PGE2 released) on UVB-irradiated human keratinocytes. Conditions: UVB 50 mJ/cm2; for Keratinocytes DNA: irradiated control = 23, not irradiated = 100; for LDH released / PGE2 released: irradiated control = 100, not irradiated = 0. It counts as cell-based. The source says:
The arachidonic cascade is an important mechanism of cutaneous inflammation. This cascade may be induced by several factors, particularly by UVB irradiation. UVB induces the inflammatory response by activation of phospholipase A2 (PLA2), which results in a release of arachidonic acid from cell membranes. Then other specific enzymes (so called cyclo-oxygenases) transform arachidonic acid in active components called prostaglandin (PG) which are secreted from the cells. The fixation of certain prostaglandins (PGE2) on specific skin receptors is followed by redness and swelling on human skin. On cultured human cells, these UVB effects on cell's membrane are associated with a release of a cytoplasmic enzyme into the supernatant medium: Lactate Dehydrogenase or LDH.
Human keratinocytes were inoculated with growth medium (DMEM+FCS) and incubated 3 days at 37° C. and 5% CO2. The growth medium was then exchanged with balanced salt solution containing the ingredient to be tested, the cell culture was irradiated by UVB 50 mJ/cm^2 (DUKE GL40E lamp). After 1 day of incubation at 37° C. with 5% CO2, LDH and PGE2 released in the medium were determined, and cellular DNA was measured using a fluorescent probe to determine the cell viability.
A general note: LDH in the medium is a marker of cell lysis.

A short description of data set [1]: Solubility in hydrophilic and lipophilic solvent by HPLC. The conditions noted are these: stirring 1 hour at room temperature. It counts as physicochemical. The procedure: The solubility was determined by HPLC measurement after stirring during 1 hour at room temperature.
A further data set concerns the target Lipoxygenase. Briefly: Anti-free radical activity: superoxide anions released by lipoxygenase, Luminol probe. Type of data set: biochemical. The conditions noted are these: mean of 2 assays; lipoxygenase with unsaturated fatty acid substrate. The procedure:
The anti-free radical (anti-FR) activity has been evaluated by biochemical tests to address the potential for scavenging superoxide anion (O2°).
Lipoxygenase was incubated with a specific substrate (unsaturated fatty acid) and the flavonoid esters. Then the rate of released superoxide anions was determined using Luminol luminescent probe to calculate the IC50 (mean of 2 assays).

Values joined by “and” are separate entries in the source; they are usually repeats but may differ in a detail not shown here. Identical values can stand only once.

For `CC1OC(OCC2OC(Oc3c(-c4ccc(O)c(O)c4)oc4cc(O)cc(O)c4c3=O)C(O)C(O)C2O)C(O)C(O)C1OC(=O)CCCCCCCCCCCCCCC(=O)O` (stereo not drawn) [Rutin hexadecandioate, rutin hexadecandioate], in the data set with Human fibroblasts (dose 0.003 % w/v), the “Cell GSH/protein ratio” value was 101 % against control, the MDA released is listed as 46 % against control and the Cell proteins came to 129 % against control. In the data set on Human fibroblasts (dose 0.01 % w/v), the “Cell GSH/protein ratio” value was 75 % against control, the MDA released is recorded as 21 % against control and the Cell proteins was 178 % against control. In addition, in the data set on Human keratinocytes (dose 0.003 % w/v), the “Keratinocytes DNA” value came to 24 % against control, the LDH released stood at 53 % against control and the PGE2 released amounted to 2 % against control. Besides, in the data set with Human keratinocytes (dose 0.01 % w/v), the “Keratinocytes DNA” value came to 39 % against control, the LDH released was determined as 19 % against control and the PGE2 released is 0 % against control. In addition, in data set [1], the “Solubility in butylene glycol” value was 39.4 g/L and 44.7 mM; the Solubility in octyl-dodecanol was 0.13 g/L and 0.15 mM; the Solubility in water is 0.38 g/L and 0.43 mM. Moreover, the “IC50 (w/v), released superoxide anions” value at Lipoxygenase came to 0.0036 w/v.
`CC1OC(OCC2OC(Oc3c(-c4ccc(O)c(O)c4)oc4cc(O)cc(O)c4c3=O)C(O)C(O)C2O)C(O)C(O)C1OC(=O)CCCCCCCCCCCCCCC(=O)OC1C(C)OC(OCC2OC(Oc3c(-c4ccc(O)c(O)c4)oc4cc(O)cc(O)c4c3=O)C(O)C(O)C2O)C(O)C1O` (stereo not drawn) [Dirutin hexadecandioate, dirutin hexadecandioate]: in the data set on Human fibroblasts (dose 0.001 % w/v), the “Cell GSH/protein ratio” value came to 98 % against control, the MDA released is recorded as 39 % against control and the Cell proteins is 138 % against control. For the same compound, in the data set on Human fibroblasts (dose 0.003 % w/v), the “Cell GSH/protein ratio” value amounted to 154 % against control, the MDA released stood at 9 % against control and the Cell proteins stood at 149 % against control. Besides, in the data set with Human keratinocytes (dose 0.001 % w/v), the “Keratinocytes DNA” value turned out to be 38 % against control, the LDH released was determined as 44 % against control and the PGE2 released is listed as 3 % against control. For the same compound, in the data set on Human keratinocytes (dose 0.003 % w/v), the “Keratinocytes DNA” value amounted to 35 % against control, the LDH released worked out at 33 % against control and the PGE2 released came out at 1 % against control. Besides, the “IC50 (w/v), released superoxide anions” value on Lipoxygenase was 0.0028 w/v.
For Rutin octadecandioate, in the data set on Human fibroblasts (dose 0.001 % w/v), the “Cell GSH/protein ratio” value is given as 73 % against control, the MDA released worked out at 46 % against control and the Cell proteins was determined as 139 % against control. In the data set on Human fibroblasts (dose 0.003 % w/v), the “Cell GSH/protein ratio” value is 122 % against control, the MDA released is reported as 15 % against control and the Cell proteins was found to be 133 % against control. In the data set on Human keratinocytes (dose 0.001 % w/v), the “Keratinocytes DNA” value was 23 % against control, the LDH released is on record as 73 % against control and the PGE2 released is 28 % against control. Moreover, in the data set with Human keratinocytes (dose 0.003 % w/v), the “Keratinocytes DNA” value stood at 49 % against control, the LDH released came out at 31 % against control and the PGE2 released is given as 3 % against control. The “IC50 (w/v), released superoxide anions” value at Lipoxygenase is reported as 0.0034 w/v.
